Measured values taken from publication PMC12073438, “Stereoselectivity of In Vivo Processes and Bioactivity of Farrerol Enantiomers” (Molecules, 2025).
Several values for one entry are separate records, joined by “and”; a condition that tells them apart may be missing. Identical values can stand only once. Like-named read-outs stand apart in the source and are kept apart here.

How the values were obtained:
[1] = Stereoselective pharmacokinetics in rat liver tissue; format: in vivo, Sprague–Dawley rats; conditions: rat liver, oral 40 mg/kg farrerol racemate; for Cmax / AUC(0–t) / AUC(0–∞): 40 mg/kg
Description: Forty-two rats were divided randomly into seven groups (6 rats per time point at 0.5, 1, 2, 4, 8, 12, and 24 h) and were orally administered farrerol racemate at a dose of 40 mg/kg. Rats from each group were euthanized, and kidney and liver tissues were subsequently obtained. After washing three times using 0.9% sodium chloride solution, the attached blood and fat tissues were removed. Afterward, 0.5 g of the precisely weighed liver and kidney tissues were added to 1 mL 0.9% sodium chloride solution and homogenized in an ice bath. Subsequently, 150 µL of supernatant was transferred into a 2.0 mL EP tube for pre-treatment, in the same way as the pretreatment of plasma samples (see Section 3.4.1).
Stereoselective chromatographic analysis of farrerol enantiomers was conducted utilizing an ACQUITY UPLC I-Class UPLC system (Waters, Milford, MA, USA), which is equipped with a quaternary pump and an autosampler. The chiral separation was carried out employing a Chiralpak OJ-RH column (250 mm × 4.6 mm, 5 μm), which was obtained from Daicel Chemical Industries (Shanghai, China). The mobile phase consisted of ACN-H2O (60:40, v/v), and the constant flow rate was 0.5 mL/min. The column temperature was set at 25 °C, and the injection volume was 10 μL.
Mass detection was conducted using a triple quadrupole mass spectrometer (Waters Co., USA) equipped with an electrospray ionization (ESI) source. The detection of enantiomers and internal standards (IS) was carried out in multiple reaction monitoring (MRM) mode utilizing negative ionization. The m/z 299→179 for enantiomers and m/z 267→252 for IS were selected as detecting ions for quantitation. The collision energies (CE) were established at 22 eV and 20 eV, respectively. The primary mass spectrometry (MS) parameters were configured as follows: capillary voltage was set to 3.5 kV, ion source temperature was maintained at 150 °C, desolvation gas flow rate was 800 L/h, and the cone voltage (CV) was adjusted to 1.3 V.
Pharmacokinetic analysis was conducted utilizing the Drug and Statistics (DAS) 2.0 software provided by the Chinese Pharmacological Society. To assess the differences in pharmacokinetic parameters, the IC50 values of the evaluated CYP enzymes and the permeability coefficients between the two farrerol enantiomers, paired sample t-tests and independent sample t-tests were performed. Statistical significance was defined as * p < 0.05 and ** p < 0.01. All results are presented as mean values ± standard deviation (SD).

[2] = molecular target: CYP2C19 (Homo sapiens, UniProt P33261); assay: CYP inhibition in liver microsomes (S-mephenytoin); format: in vitro ADME; conditions: CYP 2C19, marker substrate S-mephenytoin
Description: A liver microsome working solution (20 mg/mL) contained potassium phosphate buffer (0.1 M, pH 7.4), hepatic microsomes and marker substrate solution, which phenacetin, diclofenic acid, S-mephenytoinwer, dextromethorphan, midazolam, coumarin and chlorzoxazone used as substrates for […], CYP2C9, CYP2C19, CYP2D6, CYP3A4/5, CYP2A6 and CYP2E1, respectively. In brief, 238.5 µL of liver microsome working solution was placed in a 1 mL EP tube. […] The reaction was started by injecting NADPH (1 mM), and the resulting mixture was incubated at 37 °C for 10 min. After centrifuging at 4000 rpm for 15 min, the supernatant was transferred and analyzed using LC-MS/MS to detect the corresponding metabolites. Each incubation was conducted in triplicate (n = 3).
An API 4000 LC/tandem mass spectrometry was used to analyze the concentration of metabolites of various chemical agents using a validated mode. An Atlantis T3 column (2.1 mm × 50 mm, 5 μm) was utilized, employing mobile phases consisting of a 0.1% formic acid solution (A) and a 0.1% acetonitrile formate solution (B). […] MRM was utilized to quantify each metabolite, detecting the following transitions: m/z 152.1/110 for acetaminophen, 312.1/230.0 for 4′-Hydroxydiclofenac, 235.0/150.0 for 4′-hydroxymephentoin, 258.2/199.1 for Dextrorphan, 342.1/203.0 for 1′-hydroxymidazolam, 161.1/133.1 for hydroxycoumarin, and 184.0/120.0 for 6-hydroxyclozoxadone.

[3] = Rat single-pass intestinal perfusion; format: in vivo, Sprague–Dawley rats
Description: The absorption rate constant (Ka) and permeability coefficient (Peff) were calculated using the following equation: […] The single-pass intestinal perfusion studies in rats were conducted following previously established methodologies. […] Before the surgical procedure, animals were fasted overnight with water ad libitum. Rats were anesthetized via intraperitoneal administration of 20% urethane at a dosage of 6 mL/kg and subsequently positioned on a heating pad. Their normal body temperature (37.0 ± 0.5 °C) was sustained using an infrared lamp. A midline incision was made to open the abdomen, allowing for the exposure of 35–45 cm of the small intestine, along with a 10 cm segment […]. This segment was cannulated with Teflon tubing (0.42 cm in diameter) at both the proximal and distal ends, which were then secured with silk sutures. This segment was gently flushed with warmed normal saline to remove intestinal contents. Then, farrerol racemate maintained at 37 °C was perfused through the lumen of the small intestine at a flow rate of 0.2 mL/min. After a 30 min equilibration period to reach steady-state outlet concentrations, the perfusate samples were collected every 15 min for 120 min in micro-centrifuge tubes. The length of the small intestinal segment was measured following the last collection. All collected samples were stored at −20 °C. 500 μL of collected intestinal perfusion samples were placed in an EP tube and then dried with nitrogen at 37 °C. The residue was redissolved and precipitated with 200 μL of methanol by vortex-mixing for 5 min. Following centrifugation at 13,000 rpm for 10 min, the supernatant samples were analyzed using the previously validated RP-HPLC-DAD method. The chiral HPLC technique employed for the analysis of farreol enantiomers in intestinal perfusate aligned with the chromatographic procedure outlined in Section 3.4.3. This method underwent validation for parameters including linearity, range, extraction recovery, specificity, precision, and accuracy. […] The extraction recoveries of farrerol in intestinal perfusate at three different concentration levels ranged from 90.57% to 95.57%.

[4] = Colon, farrerol racemate 66.00 μg·mL^−1
[5] = Colon, farrerol racemate 132.00 μg·mL^−1
[6] = Colon, farrerol racemate 132.00 μg·mL^−1 + verapamil
[7] = Colon, farrerol racemate 180.00 μg·mL^−1
[8] = Duodenum, farrerol racemate 66.00 μg·mL^−1
[9] = Duodenum, farrerol racemate 132.00 μg·mL^−1
[10] = Duodenum, farrerol racemate 132.00 μg·mL^−1 + verapamil
[11] = Duodenum, farrerol racemate 180.00 μg·mL^−1
[12] = Ileum, farrerol racemate 66.00 μg·mL^−1
[13] = Ileum, farrerol racemate 132.00 μg·mL^−1
[14] = Ileum, farrerol racemate 132.00 μg·mL^−1 + verapamil
[15] = Ileum, farrerol racemate 180.00 μg·mL^−1
[16] = Jejunum, farrerol racemate 66.00 μg·mL^−1
[17] = Jejunum, farrerol racemate 132.00 μg·mL^−1
[18] = Jejunum, farrerol racemate 132.00 μg·mL^−1 + verapamil
[19] = Jejunum, farrerol racemate 180.00 μg·mL^−1

CYP2C19, sequence (P33261 whole entry): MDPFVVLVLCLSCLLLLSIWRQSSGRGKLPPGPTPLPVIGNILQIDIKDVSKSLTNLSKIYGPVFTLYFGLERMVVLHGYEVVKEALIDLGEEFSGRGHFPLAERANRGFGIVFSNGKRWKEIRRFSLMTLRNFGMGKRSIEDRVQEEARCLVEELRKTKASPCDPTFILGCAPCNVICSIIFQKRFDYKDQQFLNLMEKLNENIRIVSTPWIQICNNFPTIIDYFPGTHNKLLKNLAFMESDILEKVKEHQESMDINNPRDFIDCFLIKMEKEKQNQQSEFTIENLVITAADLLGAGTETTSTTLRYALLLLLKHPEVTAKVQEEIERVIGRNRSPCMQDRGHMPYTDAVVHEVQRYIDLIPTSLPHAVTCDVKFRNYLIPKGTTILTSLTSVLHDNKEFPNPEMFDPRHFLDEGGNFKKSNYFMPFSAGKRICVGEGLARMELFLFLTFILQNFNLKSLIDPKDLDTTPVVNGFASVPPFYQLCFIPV

SMILES | AUC(0–t) [1] | AUC(0–∞) [1] | IC50 [2] [nM] | Peff [3, 4] | Peff [3, 5] | Peff [3, 6] | Peff [3, 7] | Peff [3, 8] | Peff [3, 9] | Peff [3, 10] | Peff [3, 11] | Peff [3, 12] | Peff [3, 13] | Peff [3, 14] | Peff [3, 15] | Peff [3, 16] | Peff [3, 17] | Peff [3, 18] | Peff [3, 19] | other results
Cc1c(O)c(C)c2c(c1O)C(=O)CC(c1ccc(O)cc1)O2 (single isomer, unassigned; (+)) [(+)-farrerol, 2,3-dihydro-5,7-dihydroxy-2-(4-hydroxyphenyl)-6,8-dimethyl-4-benzopyrone] | 976.25 ± 41.60 µg·h/g | 994.01 ± 40.84 µg·h/g | 1610 | 1.09 ± 0.37 ×10^−1 cm·min^−1 | 0.93 ± 0.09 ×10^−1 cm·min^−1 | 1.41 ± 0.23 ×10^−1 cm·min^−1 | 1.04 ± 0.12 ×10^−1 cm·min^−1 | 1.32 ± 0.03 ×10^−1 cm·min^−1 | 1.16 ± 0.11 ×10^−1 cm·min^−1 | 1.42 ± 0.17 ×10^−1 cm·min^−1 | 1.30 ± 0.14 ×10^−1 cm·min^−1 | 1.12 ± 0.22 ×10^−1 cm·min^−1 | 0.87 ± 0.08 ×10^−1 cm·min^−1 | 0.77 ± 0.11 ×10^−1 cm·min^−1 | 0.79 ± 0.04 ×10^−1 cm·min^−1 | 1.16 ± 0.23 ×10^−1 cm·min^−1 | 0.73 ± 0.03 ×10^−1 cm·min^−1 | 1.12 ± 0.10 ×10^−1 cm·min^−1 | 1.03 ± 0.06 ×10^−1 cm·min^−1 | Cmax ([1]; Sprague-Dawley, rat, liver, po, read-out: Cmax): 104000 ± 18000 ng/g; Tmax ([1]; Sprague-Dawley, read-out: Tmax): 2 h
Cc1c(O)c(C)c2c(c1O)C(=O)CC(c1ccc(O)cc1)O2 (single isomer, unassigned; (-)) [(−)-farrerol, 2,3-dihydro-5,7-dihydroxy-2-(4-hydroxyphenyl)-6,8-dimethyl-4-benzopyrone] | 1200.9 µg/g*h and 1200.96 ± 58.92 * µg/g*h | 1217.62 ± 65.03 * µg/g*h | 2070 | 1.12 ± 0.41 ×10^−1 cm·min^−1 | 0.95 ± 0.10 ×10^−1 cm·min^−1 | 1.42 ± 0.23 ×10^−1 cm·min^−1 | 1.12 ± 0.17 ×10^−1 cm·min^−1 | 1.33 ± 0.03 ×10^−1 cm·min^−1 | 1.17 ± 0.10 ×10^−1 cm·min^−1 | 1.43 ± 0.17 ×10^−1 cm·min^−1 | 1.33 ± 0.11 ×10^−1 cm·min^−1 | 1.14 ± 0.22 ×10^−1 cm·min^−1 | 0.89 ± 0.10 ×10^−1 cm·min^−1 | 0.77 ± 0.11 ×10^−1 cm·min^−1 | 0.78 ± 0.07 ×10^−1 cm·min^−1 | 1.17 ± 0.24 ×10^−1 cm·min^−1 | 0.74 ± 0.05 ×10^−1 cm·min^−1 | 1.12 ± 0.10 ×10^−1 cm·min^−1 | 1.07 ± 0.10 ×10^−1 cm·min^−1 | AUC0–24 of (−)-farrerol relative to (+)-farrerol [1]: 1.23 times; Cmax of (−)-farrerol relative to (+)-farrerol [1]: 1.43 times; Tmax [1]: 2.00 h; Cmax [1]: 148.4 ± 2.61 * µg/g
